# In patent US10106523B2, “Amide compound” (ASTELLAS PHARMA INC., priority 2014, dated 2018):
# Target: rat EP4 receptor (Rattus norvegicus, UniProt P43114)
# Test: Evaluation test of rat EP4 receptor affinity ([3H]PGE2 binding, membrane fraction of HEK-293 cells)
# Set-up: expressed in transfected cells; host or cells: HEK-293 (ATCC CRL-1573), transient
# Conditions: 0.3 nmol/L [3H]PGE2, rat EP4 cell membrane fraction, room temperature 1 hour; read-out: Ki value with respect to the rat EP4 receptor
# Experimental: Test Example 1: Evaluation Test of Rat EP4 Receptor Affinity
# Construction of Rat EP4 Receptor Expressing Vector:
# A rat EP4 receptor gene (GenBank accession No.: NM_032076.1) was transfected into an expression vector pcDNA3.1-V5-His-TOPO (Invitrogen Inc.).
# Transient Expression of Rat EP4 Receptor:
# The expression vector of a rat EP4 receptor was transfected into an HEK-293 cell (ATCC No.: CRL-1573). The transfection was carried out according to an appended instruction, using Lipofectoamine (registered trademark) 2000 reagent (Invitrogen Inc.). After the transfection, the cells were cultured in an α-MEM culture medium for 20 to 24 hours.
# Preparation of Membrane Fraction:
# The culture medium was removed by aspiration, 10 mL of cooled phosphate buffered saline (PBS) was added thereto per 15 cm dish, and the cells were scraped using a cell scraper (Sumitomo Bakelite). […]
# [^3H]PGE2 and a cell membrane fraction were diluted with an assay buffer (50 mmol/L HEPES-NaOH, 10 mmol/L MgCl2, pH 7.5), and the test compound and unlabeled PGE2 (Cayman) were diluted with DMSO and the assay buffer. […] The radioactivity was measured using a TopCount (Perkin Elmer). […] The specific binding amount was determined by subtracting the non-specific binding amount from the total binding amount. The Ki value was calculated according to a standard method.
# Sequence of rat EP4 receptor (P43114 whole entry): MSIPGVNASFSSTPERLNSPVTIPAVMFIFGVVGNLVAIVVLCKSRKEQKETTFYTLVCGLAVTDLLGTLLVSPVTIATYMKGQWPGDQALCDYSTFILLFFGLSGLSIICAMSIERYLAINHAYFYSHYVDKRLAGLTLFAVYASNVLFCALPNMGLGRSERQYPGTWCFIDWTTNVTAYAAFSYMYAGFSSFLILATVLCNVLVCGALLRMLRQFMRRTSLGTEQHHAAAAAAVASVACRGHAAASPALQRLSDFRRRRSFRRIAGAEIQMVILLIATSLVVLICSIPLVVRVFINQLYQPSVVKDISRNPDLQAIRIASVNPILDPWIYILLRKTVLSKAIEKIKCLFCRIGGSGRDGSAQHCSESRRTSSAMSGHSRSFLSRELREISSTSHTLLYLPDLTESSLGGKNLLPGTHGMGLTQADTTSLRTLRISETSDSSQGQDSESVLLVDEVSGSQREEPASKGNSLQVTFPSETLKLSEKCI
smiles,measurement,value
"Cc1cc(C(=O)N[C@@H](C)c2ccc(C(=O)O)cc2)n(Cc2ccc(Cl)cc2)n1 [Example 205 in Patent Document 1, reference compound]",Ki,140 nM
